Like-named read-outs stand apart in the source and are kept apart here.
Columns and labels:
mTOR = target: T1, mTOR (Homo sapiens, UniProt P42345); assay: mTOR LanthaScreen (TR-FRET, phosphorylation of 4EBP1); format: biochemical; conditions: read-out: AA11016+++mTor_MA_IC50_IP
T1 construct: 2.5 μl of 0.6 μg/ml of mTOR Enzyme (Amgen) was added to rows 1-23
Description: The mTOR LanthaScreen is a TR-FRET assay measuring the phosphorylation of mTOR's substrate 4EBP1. 384 well compound plates were prepared containing 1 μl of compound per well starting at 5 mM and diluted 1:2 across the row, resulting in a 22 well serial dilution.
The assay was conducted on the PerkinElmer® FlexDrop PLUS. A 5 μl mix of 800 nM GFP-4E-BP1 (Invitrogen, PV4759) and 20 μM ATP (Amgen) was added to rows 1-24. 2.5 μl of 0.6 μg/ml of mTOR Enzyme (Amgen) was added to rows 1-23. 2.5 μl of assay buffer was added to row 24 for the low control. […] The final concentrations in the assay reagents were 400 nM GFP-4E-BP1, 10 μM of ATP and 0.15 μg/ml of mTOR enzyme. The compound, enzyme, and substrate incubate for 90 minutes.

PI3Ka = PI3Ka (Homo sapiens, UniProt P42336); assay: PI3Ka Alpha assay; format: biochemical; conditions: the values are: IC50
Sequence of PI3Ka (P42336 whole entry): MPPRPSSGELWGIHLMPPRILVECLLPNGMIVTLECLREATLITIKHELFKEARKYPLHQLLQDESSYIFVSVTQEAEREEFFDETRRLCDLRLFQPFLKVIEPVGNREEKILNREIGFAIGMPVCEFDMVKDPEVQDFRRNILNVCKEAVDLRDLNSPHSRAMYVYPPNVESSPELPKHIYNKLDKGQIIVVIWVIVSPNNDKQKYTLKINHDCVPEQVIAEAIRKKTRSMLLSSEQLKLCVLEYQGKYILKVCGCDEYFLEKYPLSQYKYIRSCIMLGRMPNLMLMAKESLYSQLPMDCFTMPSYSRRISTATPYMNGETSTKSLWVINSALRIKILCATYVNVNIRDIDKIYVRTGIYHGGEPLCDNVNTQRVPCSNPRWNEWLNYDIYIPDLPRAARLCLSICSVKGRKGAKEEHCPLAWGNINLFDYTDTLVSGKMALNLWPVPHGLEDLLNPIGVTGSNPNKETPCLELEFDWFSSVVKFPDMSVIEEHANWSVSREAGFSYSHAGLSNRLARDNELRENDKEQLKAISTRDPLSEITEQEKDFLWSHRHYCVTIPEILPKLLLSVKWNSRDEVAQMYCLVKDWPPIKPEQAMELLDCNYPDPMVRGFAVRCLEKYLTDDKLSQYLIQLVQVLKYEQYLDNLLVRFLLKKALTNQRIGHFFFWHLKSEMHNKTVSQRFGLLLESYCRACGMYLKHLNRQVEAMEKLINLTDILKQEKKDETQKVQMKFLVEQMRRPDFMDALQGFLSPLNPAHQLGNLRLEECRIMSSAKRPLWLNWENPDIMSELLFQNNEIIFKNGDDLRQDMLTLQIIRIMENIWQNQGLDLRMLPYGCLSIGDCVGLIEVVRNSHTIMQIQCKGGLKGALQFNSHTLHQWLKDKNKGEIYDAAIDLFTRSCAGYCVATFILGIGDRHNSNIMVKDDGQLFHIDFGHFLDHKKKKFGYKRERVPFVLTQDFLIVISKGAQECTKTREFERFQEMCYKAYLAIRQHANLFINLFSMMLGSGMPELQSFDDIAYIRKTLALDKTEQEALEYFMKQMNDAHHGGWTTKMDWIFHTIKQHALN
Sequence of PI3Ka (P27986 whole entry partner): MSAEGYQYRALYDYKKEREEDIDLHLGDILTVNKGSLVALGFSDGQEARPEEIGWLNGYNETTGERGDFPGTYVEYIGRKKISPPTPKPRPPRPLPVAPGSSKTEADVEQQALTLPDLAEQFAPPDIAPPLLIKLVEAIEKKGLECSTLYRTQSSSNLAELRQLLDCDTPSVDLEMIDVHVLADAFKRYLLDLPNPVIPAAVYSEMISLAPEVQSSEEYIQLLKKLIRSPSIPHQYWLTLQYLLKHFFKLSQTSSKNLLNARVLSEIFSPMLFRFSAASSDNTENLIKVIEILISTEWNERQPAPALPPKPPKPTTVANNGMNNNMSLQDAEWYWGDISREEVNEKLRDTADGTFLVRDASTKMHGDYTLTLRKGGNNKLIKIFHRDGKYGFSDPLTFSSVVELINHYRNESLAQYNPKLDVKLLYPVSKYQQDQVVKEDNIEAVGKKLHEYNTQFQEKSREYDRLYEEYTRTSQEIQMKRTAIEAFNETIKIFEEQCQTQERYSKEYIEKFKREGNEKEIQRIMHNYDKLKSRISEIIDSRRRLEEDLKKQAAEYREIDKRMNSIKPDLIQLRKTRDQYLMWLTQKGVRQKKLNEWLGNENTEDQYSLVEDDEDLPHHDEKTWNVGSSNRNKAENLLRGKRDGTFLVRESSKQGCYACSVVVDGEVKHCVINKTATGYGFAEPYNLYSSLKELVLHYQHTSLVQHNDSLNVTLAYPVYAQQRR

[1] = tested on: phosphorylation of Akt at Serine 473; assay: pAkt AlphaScreen in U87 MG cells; format: cell-based; conditions: read-out: AA11809+++pAKT_U87_IC50_IP
Description: The pAkt AlphaScreen assay determines whether there is phosphorylation of Akt at Serine 473 by recruitment of a phosphospecific antibody. This assay was performed using U87 MG cells. […] The cells were maintained weekly using 0.05% Trypsin (Gibco, 25300-054) and replated in 150 mm TC—Treated Culture Dishes (Corning, 430599).
The first day of the assay, the adherent cells were trypsinized, media was added to the loose cells and cells were mixed to a homogenous mixture. 0.5 ml of the homogenous mixture was counted on the Beckman Coulter® Vi-CELL™ XR. 50 frames of cells were counted and the number of viable cells was determined. The cells were then diluted to 0.25 million cells per ml, and centrifuged at 200 rcf for 5 minutes. The media was removed and the cells were reconstituted in fresh media for plating. The cells were plated at 20 μl per well on the PerkinElmer® FlexDrop PLUS in Low Volume 384 Well White Tissue Culture Plates (Corning, 3826) with a final cell density of 5K cells per well. The plates were incubated overnight at 37° Celsius, 5% CO2.
On the second day, the compound plates were prepared, the cells were treated with compound and the pAkt reaction mix was added to the cell lysate. 384 well compound plates were prepared by Amgen's Sample Bank containing […] of compound per well starting at 5 mM and diluted 1:2 across the row, resulting in a 22 well serial dilution. 39 μl of growth media was added to the compound plate in rows 1-22 using the PerkinElmer® FlexDrop PLUS resulting in a DMSO concentration of 2.5%. The control columns were added manually; 40 μl of 2.5% DMSO (Sigma, D4540-100 ml) in growth media was added to the plate for the high control and 40 μl of 50 μM of AMG2203766 with 2.5% DMSO was added to the plate as the low control. The cell plates and diluted compound plates were put onto the VELOCITY1 1™ VPREP™ 384 ST where the compound plate was mixed and 5 μl of serially diluted compound or controls was added to the cell plate. […] The cell plates were then incubated with compound for two hours at 37° Celsius, 5% CO2. After two hours, the media in the cell plates was aspirated using the BioTek® ELx405HT plate washer removing the majority of media and compound without disturbing the adherent U87 cells. The following assay reagents are components of the SureFire Akt (Ser 473) Phosphorylation 50K Point Kit (TGR BioSciences, TGRAS50K) and an IgG Detection Kit (PerkinElmer, 6760617R). […] The plates were then incubated at room temperature on a shaker for ten minutes. The AlphaScreen reaction was prepared under low light conditions (subdued or green light) including p-Akt (Ser 473) Reaction Buffer, Dilution Buffer, Activation Buffer, Acceptor Beads and Donor Beads at a ratio of 40:20:10:1:1 respectively. The AlphaScreen reaction was added to the cell lysate at 6 μl per well using the PerkinElmer® FlexDrop PLUS. The plates were placed in a humid environment to reduce edge effects and incubated overnight at room temperature with restricted air flow in the dark.
On the final day of the experiment, the plates were read on the PerkinElmer® EnVision™ 2103 Multilable Reader using the standard AlphaScreen readout. The POC is calculated and the data is analyzed to report the IC50 IP for pAkt at Serine 473.

[2] = U87 MG cells, two hours with compound
[3] = Homo sapiens, U-87 MG, 2 h, U87 MG cells, two hours with compound

## 1-(4-((1-(4-amino-6-methyl-1,3,5-triazin-2-yl)-1H-benzimidazol-2-yl)amino)phenyl)-3-(3,5-dichlorophenyl)thiourea [Cpd 108]
mTOR
  IC50: 2290 nM
PI3Ka
  AA12047+++PI3Ka Alpha IC50 IP: 470 nM
[1]; [2]
  IC50: 1070 nM

## 1-(4-((cyclopropylmethyl)amino)-6-methyl-1,3,5-triazin-2-yl)-N-1H-pyrazol-3-yl-1H-benzimidazol-2-amine [Cpd 170]
mTOR
  IC50: 1170 nM
PI3Ka
  AA12047+++PI3Ka Alpha IC50 IP: 1370 nM
[1]; [2]
  IC50: 1680 nM

## 1-(4-amino-6-methyl-1,3,5-triazin-2-yl)-N-1H-pyrazol-5-yl-5-(4-pyridinyl)-1H-benzimidazol-2-amine [Cpd 144]
mTOR
  IC50: 66.6 nM
PI3Ka
  AA12047+++PI3Ka Alpha IC50 IP: 7260 nM
[1]; [2]
  IC50: 125 nM

## 1-(4-amino-6-methyl-1,3,5-triazin-2-yl)-N-(1-(4-morpholinylcarbonyl)-1H-pyrazol-4-yl)-1H-benzimidazol-2-amine [Cpd 198]
PI3Ka
  AA12047+++PI3Ka Alpha IC50 IP: 2550 nM

## 1-(4-amino-6-methyl-1,3,5-triazin-2-yl)-N-(6-methoxy-3-pyridinyl)-1H-benzimidazol-2-amine [Cpd 151]
mTOR
  IC50: 124 nM
PI3Ka
  AA12047+++PI3Ka Alpha IC50 IP: 4550 nM
[1]; [2]
  IC50: 88.9 nM

## 1-(4-amino-6-methyl-1,3,5-triazin-2-yl)-N-cyclopropyl-1H-benzimidazol-2-amine [Cpd 61]
mTOR
  IC50: 10800 nM
PI3Ka
  AA12047+++PI3Ka Alpha IC50 IP: 3830 nM
[1]; [2]
  IC50: 1040 nM

## 1-(4-methyl-6-((2-(4-morpholinyl)ethyl)amino)-1,3,5-triazin-2-yl)-N-1H-pyrazol-3-yl-1H-benzimidazol-2-amine [Cpd 156]
mTOR
  IC50: 183 nM
PI3Ka
  AA12047+++PI3Ka Alpha IC50 IP: 14.6 nM
[1]; [2]
  IC50: 54.7 nM

## 3-((4-methyl-6-(2-(1H-pyrazol-3-ylamino)-1H-benzimidazol-1-yl)-1,3,5-triazin-2-yl)amino)propanenitrile [Cpd 141]
[1]; [2]
  IC50: 203 nM

## 4-((1-(4-amino-6-methyl-1,3,5-triazin-2-yl)-1H-benzimidazol-2-yl)amino)-N-4-pyridinylbenzamide [Cpd 157]
mTOR
  IC50: 194 nM
PI3Ka
  AA12047+++PI3Ka Alpha IC50 IP: 31800 nM
[1]; [2]
  IC50: 767 nM

## Cc1nc(N)nc(-n2c(Nc3cc(O)cc(O)c3)nc3ccccc32)n1 [Cpd 1, 5-((1-(4-amino-6-methyl-1,3,5-triazin-2-yl)-1H-benzimidazol-2-yl)amino)-1,3-benzenediol]
mTOR
  IC50: 0.269 nM
PI3Ka
  AA12047+++PI3Ka Alpha IC50 IP: 0.646 nM
[1]; Homo sapiens, U-87 MG, 2 h
  IC50: 4.96 nM

## Cc1nc(N)nc(-n2c(Nc3cccc(O)c3)nc3ccc(C(=O)O)cc32)n1 [Cpd 2, 1-(4-amino-6-methyl-1,3,5-triazin-2-yl)-2-((3-hydroxyphenyl)amino)-1H-benzimidazole-6-carboxylic acid]
mTOR
  IC50: 1.38 nM
[1]; [3]
  IC50: 224 nM

## Cc1nc(N)nc(-n2c(Nc3ccn[nH]3)nc3cc(F)c(F)cc32)n1 [Cpd 9, 1-(4-amino-6-methyl-1,3,5-triazin-2-yl)-5,6-difluoro-N-1H-pyrazol-5-yl-1H-benzimidazol-2-amine]
mTOR
  IC50: 24.3 nM
PI3Ka
  AA12047+++PI3Ka Alpha IC50 IP: 485 nM
[1]; Homo sapiens, U-87 MG, 2 h
  IC50: 44.6 nM

## CNC(=O)Nc1ccc(Nc2nc3ccccc3n2-c2nc(C)nc(NCC#N)n2)cc1 [Cpd 111]
mTOR
  IC50: 0.765 nM
PI3Ka
  AA12047+++PI3Ka Alpha IC50 IP: 52.8 nM
[1]; [3]
  IC50: 69.9 nM

## Cc1nc(N)nc(-n2c(Nc3ccc(NC(=O)Nc4ccncc4)cc3)nc3ccccc32)n1 [Cpd 115]
mTOR
  IC50: 4.4 nM
PI3Ka
  AA12047+++PI3Ka Alpha IC50 IP: 7.31 nM
[1]; [3]
  IC50: 132 nM

## CNc1nc(C)nc(-n2c(Nc3cc[nH]n3)nc3cc(C)c(C)cc32)n1 [Cpd 138]
mTOR
  IC50: 38.7 nM
PI3Ka
  AA12047+++PI3Ka Alpha IC50 IP: 1390 nM
[1]; [3]
  IC50: 158 nM

## Cc1nc(N)nc(-n2c(Nc3cnn(C(=O)N4CCOCC4)c3)nc3ccccc32)n1 [Cpd 201]
PI3Ka
  AA12047+++PI3Ka Alpha IC50 IP: 3520 nM
[1]; [3]
  IC50: 652 nM
